# Reference: US4098706A, “Lubricating agents for thermoplastic materials and process for preparing the same” (Sapchim-Fournier-Cimag, priority 1975, dated 1978)
# Like-named read-outs stand apart in the source and are kept apart here.
# Experiments:
# [1] = Extractibility of the lubricating agents from bottles by solvents simulating food and drink, 49° C; type: physicochemical
# Experimental: The lubricating agents according to the invention may be used to lubricate polymers which are intended for the manufacture of packaging and containers for food and drink and its was therefore necessary, in spite of their low toxicity, to determine their extractibility by various solvents simulating food and drink, namely water, ethanol-water 50/50, an aqueous solution of acetic acid (3%) and heptane.
# This study was carried out in accordance with the requirements of the Food and Drug Administration (U.S.A.).
# The extractions were performed in semi-rigid bottles, prepared with the resins given hereabove.
# The ratio of the volume of solvent to the surface of plastic material exposed to extraction was about […], taking into account the geometric characteristics of the bottles.
# Heating--: A thermostated oven for the non-inflammable solvents (water and acetic acid) A thermostated water-bath for the inflammable solvents (alcohol and heptane)
# This was, in each case, intentionally longer than that which would have given stable maximum values.
# The following periods of duration were in fact, observed:
# Acetic acid (3%) : 15 days
# Aqueous ethanol: 3 to 4 days
# The quantity of lubricating agent extracted was determined by thin layer chromatography, by comparison with a standard scale.
# A blank trial was carried out with control bottles containing no lubricating agent and a purely negative result was obtained.
# The amounts of lubricating agent determined are expressed in μg/ml of extraction solvent or, which is the same, per cm^2 of surface submitted to extraction.
# [2] = Tendency for bubbles to appear in the polyvinyl chlorides containing the lubricating agents; type: physicochemical
# Description: It is known that a release of gaz during preparation of the resin and particularly at the moment of extrusion or blowing is a grave disadvantage when manufacturing objects such as bottles because it may lead to the formation of visible bubbles in the plastic.
# [3] = Formula 913, acetic acid (3%), 15 days
# [4] = Formula 913, aqueous ethanol, 3 to 4 days
# [5] = Formula 914, acetic acid (3%), 15 days
# [6] = Formula 914, aqueous ethanol, 3 to 4 days
# [7] = Formula 915, acetic acid (3%), 15 days
# [8] = Formula 915, aqueous ethanol, 3 to 4 days
structure (smiles),measurement,setting,value
"CCCCCCCCCCCCCCCCCCCCCC(=O)OCCOCCOCCOC(=O)CCCCCCCCCCCCCCCCCCCCC [Compound 4, Triethyleneglycol dibehenate]",Toxic symptoms,"mice; mouse, in vivo, po",none
"CCCCCCCCCCCCCCCCCCCCCC(=O)OCC(COC(=O)CCCCCCCCCCCCCCCCCCCCC)(COC(=O)CCCCCCCCCCCCCCCCCCCCC)COC(=O)CCCCCCCCCCCCCCCCCCCCC [Compound 9, Pentaerythrite tetrabehenate]",Amount of lubricating agent extracted,[1]; [3],0.26 µg/mL
same,Amount of lubricating agent extracted,[1]; [4],0.13 µg/mL
same,Amount of lubricating agent extracted,"[1]; Formula 913, heptane, 3 days",0.26 µg/mL
same,Amount of lubricating agent extracted,"[1]; Formula 913, water, 15 days",0.13 µg/mL
same,Toxic symptoms,"mice; mouse, in vivo, po",none
same,Observations (release of gas),[2],Slight release
same,Temperature at which bubbles appear,[2],195 °C
"CCCCCCCCCCCCCCCCCCCCCC(=O)OCCSCCOC(=O)CCCCCCCCCCCCCCCCCCCCC [Compound 2, Thiodiglycol dibehenate]",Amount of lubricating agent extracted,[1]; [3],0.4 µg/mL
same,Amount of lubricating agent extracted,[1]; [4],0.6 µg/mL
same,Amount of lubricating agent extracted,"[1]; Formula 913, heptane, 3 days",1.3 µg/mL
same,Amount of lubricating agent extracted,"[1]; Formula 913, water, 15 days",0.13 µg/mL
same,Amount of lubricating agent extracted,[1]; [5],0.13 µg/mL
same,Amount of lubricating agent extracted,[1]; [6],0.13 µg/mL
same,Amount of lubricating agent extracted,"[1]; Formula 914, heptane, 3 days",0.8 µg/mL
same,Amount of lubricating agent extracted,"[1]; Formula 914, water, 15 days",0.13 µg/mL
same,Amount of lubricating agent extracted,[1]; [7],0.13 µg/mL
same,Amount of lubricating agent extracted,[1]; [8],0.13 µg/mL
same,Amount of lubricating agent extracted,"[1]; Formula 915, heptane, 3 days",0.6 µg/mL
same,Amount of lubricating agent extracted,"[1]; Formula 915, water, 15 days",0.13 µg/mL
same,Toxic symptoms,"mice; oral, mice",none
"CCCCCCCCCCCCCCCCCCCCCC(=O)OCC(COC(=O)CCCCCCCCCCCCCCCCCCCCC)OC(=O)CCCCCCCCCCCCCCCCCCCCC [Compound 8, Glyceryl tribehenate]",Toxic symptoms,"mice; mouse, in vivo, po",none
same,Observations (release of gas),[2],Slight release
same,Temperature at which bubbles appear,[2],230 °C
"CCCCCCCCCCCCCCCCCCCCCC(=O)OCC(C)OC(=O)CCCCCCCCCCCCCCCCCCCCC (stereo not shown) [Compound 1, 1,2-propanediol dibehenate]",Amount of lubricating agent extracted,[1]; [7],0.13 µg/mL
same,Amount of lubricating agent extracted,[1]; [8],0.13 µg/mL
same,Amount of lubricating agent extracted,"[1]; Formula 915, heptane, 3 days",0.26 µg/mL
same,Amount of lubricating agent extracted,"[1]; Formula 915, water, 15 days",0.13 µg/mL
same,Toxic symptoms,"mice; mouse, in vivo, po",none
same,Observations (release of gas),[2],No release
same,Temperature at which bubbles appear,[2],250 °C
CCCCCCCCCCCCCCCCCCCCCC(=O)O [calcium behenate],Toxic symptoms,"mice; mouse, in vivo, po",none
"CCCCCCCCCCCCCCCCCCCCCC(=O)OCCCCOC(=O)CCCCCCCCCCCCCCCCCCCCC [Compound 7, 1,4-butanediol dibehenate]",Amount of lubricating agent extracted,[1]; [5],0.13 µg/mL
same,Amount of lubricating agent extracted,[1]; [6],0.13 µg/mL
same,Amount of lubricating agent extracted,"[1]; Formula 914, heptane, 3 days",0.8 µg/mL
same,Amount of lubricating agent extracted,"[1]; Formula 914, water, 15 days",0.13 µg/mL
same,Toxic symptoms,"mice; mouse, in vivo, po",none
